{
  "source": "paper PMC10928841",
  "about": "“Ames test study designs for nitrosamine mutagenicity testing: qualitative and quantitative analysis of key assay parameters” (Mutagenesis, 2023)",
  "key": {"CYP2E1 [1]": {"biological_target": "CYP2E1 (Mesocricetus auratus, UniProt P51581)", "sequence (P51581 whole entry)": "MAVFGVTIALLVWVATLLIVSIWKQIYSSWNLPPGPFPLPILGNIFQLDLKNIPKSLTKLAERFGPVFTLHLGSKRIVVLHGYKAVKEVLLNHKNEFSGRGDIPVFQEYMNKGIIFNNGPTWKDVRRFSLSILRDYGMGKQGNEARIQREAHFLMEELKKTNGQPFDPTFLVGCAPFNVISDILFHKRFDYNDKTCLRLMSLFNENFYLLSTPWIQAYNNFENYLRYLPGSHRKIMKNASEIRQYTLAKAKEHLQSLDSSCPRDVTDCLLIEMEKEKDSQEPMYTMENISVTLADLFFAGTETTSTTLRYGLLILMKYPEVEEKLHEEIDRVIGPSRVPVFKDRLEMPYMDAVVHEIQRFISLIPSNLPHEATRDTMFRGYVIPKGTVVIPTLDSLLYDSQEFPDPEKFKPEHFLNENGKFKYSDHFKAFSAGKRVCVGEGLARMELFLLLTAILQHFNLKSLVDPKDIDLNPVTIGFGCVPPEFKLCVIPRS", "assay": "Effect of vehicle on CYP2E1 activity of hamster liver S9 (chlorzoxazone 6-hydroxylation)", "settings": "vehicle 7.7% (v/v), chlorzoxazone 10 µM, 30 min; for effect on conversion of chlorzoxazone to 6-hydroxychlorzoxazone compared with water: induced hamster liver S9; for reduction of 6-hydroxychlorzoxazone formation compared with water: Aroclor-induced hamster liver S9"}, "CYP2E1 [2]": {"biological_target": "CYP2E1 (Rattus norvegicus, UniProt P05182)", "sequence (P05182 whole entry)": "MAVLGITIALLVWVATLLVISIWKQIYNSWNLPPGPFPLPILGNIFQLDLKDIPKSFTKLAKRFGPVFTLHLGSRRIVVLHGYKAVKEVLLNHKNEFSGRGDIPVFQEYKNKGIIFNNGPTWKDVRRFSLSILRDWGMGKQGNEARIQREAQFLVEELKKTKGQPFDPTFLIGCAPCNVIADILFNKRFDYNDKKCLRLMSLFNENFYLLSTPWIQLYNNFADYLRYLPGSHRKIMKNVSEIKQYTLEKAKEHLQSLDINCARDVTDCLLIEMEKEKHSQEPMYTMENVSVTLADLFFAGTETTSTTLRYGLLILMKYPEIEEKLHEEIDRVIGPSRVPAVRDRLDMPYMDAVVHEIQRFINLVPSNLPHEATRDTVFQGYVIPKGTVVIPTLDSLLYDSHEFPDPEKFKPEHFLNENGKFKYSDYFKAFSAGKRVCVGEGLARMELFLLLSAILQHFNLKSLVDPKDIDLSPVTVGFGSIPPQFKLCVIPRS", "assay": "Effect of vehicle on CYP2E1 activity of rat liver S9 (chlorzoxazone 6-hydroxylation)", "settings": "induced rat liver S9; vehicle 7.7% (v/v); chlorzoxazone 10 µM; 30 min"}, "Salmonella typhimurium": {"system": "Salmonella typhimurium", "settings": "cited from earlier work"}, "S. typhimurium TA98": {"system": "S. typhimurium TA98", "assay": "Ames test, pre-incubation method, TA98", "settings": "vehicle acetonitrile, up to 5000 µg/plate"}, "S. typhimurium TA1537": {"system": "S. typhimurium TA1537", "assay": "Ames test, pre-incubation method, TA1537", "settings": "S9 hamster, vehicle acetonitrile, up to 5000 µg/plate"}, "[3]": {"system": "S. typhimurium and E. coli tester strains", "assay": "Benchmark dose (BMD) modelling of positive Ames test dose-response data", "type": "cell-based, Salmonella typhimurium and Escherichia coli", "settings": "BMR 100%; all positive combinations of vehicle, method, strain and S9", "description": "Benchmark dose analyses were carried out using the freely available PROAST R-package (version 70.3) (http://www.proast.nl). Ames test dose–response data (with cytotoxic test concentrations removed) were analysed using the exponential model family recommended by EFSA for the assessment of continuous (geno)toxicity dose–response data [37]. Where combined analyses were used, dose–response relationships were analysed using the assay conditions discriminating the subgroups (i.e. sub-study) as a covariate. To prevent overfitting, more complex models with additional parameters were only accepted if the goodness-of-fit exceeded the critical value at P < .05. PROAST outputs designate potency (i.e. the benchmark dose (BMD)) and its two-sided, 90% confidence interval (i.e. the BMDL and BMDU) as the ‘Critical Effect Dose’ (i.e. yielding a CED, CEDL, and CEDU), respectively, for each level of the covariate. Using the combined-covariate BMD approach [38], the model parameters that required estimation for each subgroup and those that could be considered constant across subgroups were established for the combined dataset. In general, the combined analyses presented here assumed that parameters for the maximum response (parameter c), log-steepness (parameter d) were equal for all subgroups, while the background response (parameter a), potency (parameter b), and within-group variation (var) were tested for subgroup dependence [39]. Model fits were used to visually evaluate the validity of the assumption of conserved shape. […]\nTo further understand the impact of different test parameters on test outcomes, BMD-derived potency/sensitivity rankings [38] were generated from the dose–response relationships for NDMA and NDEA. […] Instead, the purpose is to quantitatively provide a means to compare the potency/sensitivity of different assay conditions, that is, bacterial strain, S9 source, vehicle, and plate/pre-incubation methods, to inform on optimal study designs for robust/sensitive mutagenicity calls. […]"}, "E. coli WP2uvrA (pKM101) [4]": {"system": "E. coli WP2uvrA (pKM101)", "settings": "for increase in mutant frequency at the limit concentration: 5000 µg/plate"}, "E. coli WP2uvrA (pKM101) [5]": {"system": "E. coli WP2uvrA (pKM101)", "assay": "Ames test, pre-incubation method, WP2uvrA (pKM101)", "settings": "for increase in mutant frequency compared with vehicle controls: 5000 µg/plate"}, "S. typhimurium TA100": {"system": "S. typhimurium TA100", "assay": "Ames test, pre-incubation method, TA100"}, "S. typhimurium TA1535": {"system": "S. typhimurium TA1535", "assay": "Ames test, pre-incubation method, TA1535", "settings": "hamster liver S9-mix, vehicle water, 5000 µg/plate"}, "rat": {"system": "rat", "set-up": "method as in PMID 4230610", "settings": "historical data; cited from earlier work"}, "[6]": {"settings": "plate incorporation, rat liver S9-mix, vehicle methanol, E. coli WP2uvrA (pKM101)"}, "[7]": {"settings": "plate incorporation, rat liver S9-mix, vehicle water, E. coli WP2uvrA (pKM101)"}, "[8]": {"settings": "rat liver S9-mix, vehicle methanol"}},
  "note": "Read-outs that look alike come from different tables or passages of the source.",
  "data": [
    {"smiles": "C[S+](C)[O-]", "note": "[DMSO, dimethylsulfoxide]", "values": [
      {"measurement": "effect on conversion of chlorzoxazone to 6-hydroxychlorzoxazone compared with water", "setting": "CYP2E1 [1]", "result": "inhibit"},
      {"measurement": "effect on conversion of chlorzoxazone to 6-hydroxychlorzoxazone compared with water", "setting": "CYP2E1 [2]", "result": "inhibit"}
    ]},
    {"smiles": "CO", "note": "[Methanol, methanol]", "values": [
      {"measurement": "reduction of 6-hydroxychlorzoxazone formation compared with water", "setting": "CYP2E1 [1]", "result": "~ 50%"},
      {"measurement": "effect on conversion of chlorzoxazone to 6-hydroxychlorzoxazone compared with water", "setting": "CYP2E1 [2]", "result": "negligible effect"}
    ]},
    {"smiles": "CCN(CC)N=O", "note": "[NDEA, N-nitrosodiethylamine]", "values": [
      {"measurement": "mutagenicity in the absence of metabolic activation", "setting": "Salmonella typhimurium; not tested in the current study", "result": "non-mutagenic"},
      {"measurement": "Ames test strain TA98", "setting": "S. typhimurium TA98; S9 hamster", "result": "Toxic"},
      {"measurement": "Ames test strain TA98", "setting": "S. typhimurium TA98; S9 rat", "result": "Toxic"},
      {"measurement": "Ames test strain TA1537", "setting": "S. typhimurium TA1537", "result": "Toxic"},
      {"measurement": "range in sensitivity/potency (BMD100 confidence intervals) across positive datasets", "setting": "[3]", "result": "~ 100 fold"},
      {"measurement": "Ames test strain WP2*", "setting": "E. coli WP2uvrA (pKM101) [4]", "result": "+"},
      {"measurement": "concentration giving concentration-dependent increases in mutant frequency", "setting": "E. coli WP2uvrA (pKM101) [4]; plate incorporation, rat liver S9-mix, all three vehicles water, methanol or DMSO, E. coli WP2uvrA (pKM101)", "result": "≥ 1500", "unit": "µg/plate"}
    ]},
    {"smiles": "CN(C)N=O", "note": "[NDMA, N-Nitrosodimethylamine]", "values": [
      {"measurement": "range in sensitivity/potency (BMD100 confidence intervals) across positive datasets", "setting": "[3]", "result": "~ 1000 fold"},
      {"measurement": "concentration giving an increase in revertant colonies compared with vehicle controls", "setting": "E. coli WP2uvrA (pKM101) [4]; [6]", "result": 5000, "unit": "µg/plate"},
      {"measurement": "concentration giving an increase in revertant colonies compared with vehicle controls", "setting": "E. coli WP2uvrA (pKM101) [4]; [7]", "result": "≥ 1500", "unit": "µg/plate"},
      {"measurement": "increase in mutant frequency compared with vehicle controls", "setting": "E. coli WP2uvrA (pKM101) [5]; rat liver S9, vehicle methanol", "result": 2, "unit": "fold"},
      {"measurement": "increase in mutant frequency compared with vehicle controls", "setting": "E. coli WP2uvrA (pKM101) [5]; rat liver S9, vehicle water", "result": 2.6, "unit": "fold"}
    ]},
    {"smiles": "CCN(C)N=O", "note": "[NMEA, N-nitrosomethylethylamine]", "values": [
      {"measurement": "fold-increase at the limit concentration", "setting": "S. typhimurium TA100; hamster liver S9-mix, vehicle water, 5000 µg/plate", "result": 32, "unit": "fold"},
      {"measurement": "concentration giving a concentration-related increase in revertant colonies", "setting": "S. typhimurium TA100; [8]", "result": "≥ 1500", "unit": "µg/plate"},
      {"measurement": "Ames test (legacy result)", "setting": "Salmonella typhimurium; historical data", "result": "negative"},
      {"measurement": "range in sensitivity/potency (BMD100 confidence intervals) across positive datasets", "setting": "[3]", "result": 1000, "unit": "fold"},
      {"measurement": "concentration giving an increase in revertant colonies compared with vehicle controls", "setting": "E. coli WP2uvrA (pKM101) [4]; [6]", "result": "≥ 1500", "unit": "µg/plate"},
      {"measurement": "increase in mutant frequency at the limit concentration", "setting": "E. coli WP2uvrA (pKM101) [4]; [6]", "result": 4.3, "unit": "fold"},
      {"measurement": "concentration giving an increase in revertant colonies compared with vehicle controls", "setting": "E. coli WP2uvrA (pKM101) [4]; [7]", "result": "≥ 2500", "unit": "µg/plate"},
      {"measurement": "increase in mutant frequency at the limit concentration", "setting": "E. coli WP2uvrA (pKM101) [4]; [7]", "result": 2.7, "unit": "fold"},
      {"measurement": "fold-increase at the limit concentration", "setting": "S. typhimurium TA1535", "result": 275, "unit": "fold"},
      {"measurement": "rodent cancer bioassay", "setting": "rat", "result": "positive"},
      {"measurement": "concentration giving a positive response", "setting": "E. coli WP2uvrA (pKM101) [5]; [8]", "result": 5000, "unit": "µg/plate"}
    ]},
    {"smiles": "CC(C)=O", "note": "[acetone]", "values": [
      {"measurement": "reduction of 6-hydroxychlorzoxazone formation compared with water", "setting": "CYP2E1 [1]", "result": "~ 75%"},
      {"measurement": "effect on conversion of chlorzoxazone to 6-hydroxychlorzoxazone compared with water", "setting": "CYP2E1 [2]", "result": "negligible effect"}
    ]},
    {"smiles": "CC#N", "note": "[acetonitrile]", "values": [
      {"measurement": "effect on conversion of chlorzoxazone to 6-hydroxychlorzoxazone compared with water", "setting": "CYP2E1 [1]", "result": "inhibit"},
      {"measurement": "effect on conversion of chlorzoxazone to 6-hydroxychlorzoxazone compared with water", "setting": "CYP2E1 [2]", "result": "inhibit"}
    ]}
  ]
}
